Laboratory results: ChEMBL document CHEMBL1649201, “VanB-type Enterococcus faecium clinical isolate successively inducibly resistant to, dependent on, and constitutively resistant to vancomycin” (2009)
Values after ≈ are worked out from the molar mass of the structure shown.

Columns and labels:
[1] = molecular target: T1, D,D-carboxypeptidase (Enterococcus faecium) (UniProt Q7BI95); assay: Activity of D,D-carboxypeptidase in vancomycin-resistant and teicoplanin-sensitive VanB-type Enterococcus faecium BM4659 cytoplasmic fraction assessed as enzyme mediated D-Alanine release per mg protein at 8 ug/ml
T1 sequence (whole entry): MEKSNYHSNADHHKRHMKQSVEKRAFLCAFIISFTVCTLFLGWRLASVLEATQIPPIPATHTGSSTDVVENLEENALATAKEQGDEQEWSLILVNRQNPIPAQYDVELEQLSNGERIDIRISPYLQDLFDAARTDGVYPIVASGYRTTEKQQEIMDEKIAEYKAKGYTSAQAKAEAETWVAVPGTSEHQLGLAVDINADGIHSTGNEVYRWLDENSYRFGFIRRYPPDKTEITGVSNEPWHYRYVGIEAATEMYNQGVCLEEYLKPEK

[2] = molecular target: T2, D,D-dipeptidase (Enterococcus faecium) (UniProt Q9EYV8); assay: Activity of D,D-dipeptidase in vancomycin-dependent VanB-type Enterococcus faecium BM4660 assessed as enzyme mediated D-Alanine release per mg protein at 8 ug/ml
T2 sequence (whole entry): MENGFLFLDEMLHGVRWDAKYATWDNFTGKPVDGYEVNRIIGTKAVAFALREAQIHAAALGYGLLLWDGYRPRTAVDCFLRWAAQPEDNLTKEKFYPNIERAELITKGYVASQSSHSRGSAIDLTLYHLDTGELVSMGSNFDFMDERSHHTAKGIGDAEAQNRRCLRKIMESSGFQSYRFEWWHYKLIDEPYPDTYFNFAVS

[3] = test system: Enterococcus faecium; assay: Antimicrobial activity against vancomycin-revertant and teicoplanin-sensitive VanB-type Enterococcus faecium BM4661; format: functional
[4] = molecular target: T1, D,D-carboxypeptidase (Enterococcus faecium); assay: Activity of D,D-carboxypeptidase in vancomycin-dependent VanB-type Enterococcus faecium BM4660 cytoplasmic fraction assessed as enzyme mediated D-Alanine release per mg protein at 8 ug/ml
[5] = test system: Enterococcus faecium; assay: Antimicrobial activity against vancomycin-dependent VanB-type Enterococcus faecium BM4660; format: functional
[6] = molecular target: T1, D,D-carboxypeptidase (Enterococcus faecium); assay: Activity of D,D-carboxypeptidase in vancomycin-revertant and teicoplanin-sensitive VanB-type Enterococcus faecium BM4661 cytoplasmic fraction assessed as enzyme mediated D-Alanine release per mg protein at 8 ug/ml
[7] = molecular target: T1, D,D-carboxypeptidase (Enterococcus faecium); assay: Activity of D,D-carboxypeptidase in vancomycin-dependent VanB-type Enterococcus faecium BM4660 membrane fraction assessed as enzyme mediated D-Alanine release per mg protein at 8 ug/ml
[8] = test system: Enterococcus faecium; assay: Antimicrobial activity against vancomycin-resistant and teicoplanin-sensitive VanB-type Enterococcus faecium BM4659; format: functional
[9] = molecular target: T1, D,D-carboxypeptidase (Enterococcus faecium); assay: Activity of D,D-carboxypeptidase in vancomycin-resistant and teicoplanin-sensitive VanB-type Enterococcus faecium BM4659 membrane fraction assessed as enzyme mediated D-Alanine release per mg protein at 8 ug/ml
[10] = molecular target: T2, D,D-dipeptidase (Enterococcus faecium); assay: Activity of D,D-dipeptidase in vancomycin-revertant and teicoplanin-sensitive VanB-type Enterococcus faecium BM4661 assessed as enzyme mediated D-Alanine release per mg protein at 8 ug/ml
[11] = molecular target: T2, D,D-dipeptidase (Enterococcus faecium); assay: Activity of D,D-dipeptidase in vancomycin-resistant and teicoplanin-sensitive VanB-type Enterococcus faecium BM4659 assessed as enzyme mediated D-Alanine release per mg protein at 8 ug/ml
[12] = molecular target: T1, D,D-carboxypeptidase (Enterococcus faecium); assay: Activity of D,D-carboxypeptidase in vancomycin-revertant and teicoplanin-sensitive VanB-type Enterococcus faecium BM4661 membrane fraction assessed as enzyme mediated D-Alanine release per mg protein at 8 ug/ml

CN[C@H](CC(C)C)C(=O)N[C@H]1C(=O)N[C@@H](CC(N)=O)C(=O)N[C@H]2C(=O)N[C@H]3C(=O)N[C@H](C(=O)N[C@H](C(=O)O)c4cc(O)cc(O)c4-c4cc3ccc4O)[C@H](O)c3ccc(c(Cl)c3)Oc3cc2cc(c3O[C@@H]2O[C@H](CO)[C@@H](O)[C@H](O)[C@H]2O[C@H]2C[C@](C)(N)[C@H](O)[C@H](C)O2)Oc2ccc(cc2Cl)[C@H]1O [VANCOMYCIN]
Activity [1]: 13 nmol/min/mg | Activity [2]: 99 nmol/min/mg | MIC [3]: 256 µg/mL (≈ 177 µM) | Activity [4]: 5.3 nmol/min/mg | MIC [5]: 256 µg/mL (≈ 177 µM) | Activity [6]: 4.3 nmol/min/mg | Activity [7]: 30 nmol/min/mg | MIC [8]: 64 µg/mL (≈ 44.2 µM) | Activity [9]: 115 nmol/min/mg | Activity [10]: 128 nmol/min/mg | Activity [11]: 255 nmol/min/mg | Activity [12]: 27 nmol/min/mg
